The target of one assay is CDK4/Cyclin D1 (Homo sapiens (Human), UniProt P11802). The assay is described as follows: CDK4/Cyclin D1 mobility shift assay. It counts as biochemical. The settings on record: activated CDK4/Cyclin D1, 3.5 mM ATP, Morrison fit; read-out: CDK4D1 Ki.
The next assay deals with CDK6/Cyclin D3 (Homo sapiens (Human), UniProt Q00534). The assay can be described thus: CDK6/Cyclin D3 mobility shift assay. It counts as biochemical. The settings on record: activated CDK6/Cyclin D3, 3.5 mM ATP, Morrison fit; read-out: CDK6_D3 Ki.
Chain of CDK6/Cyclin D3 (Q00534 whole entry): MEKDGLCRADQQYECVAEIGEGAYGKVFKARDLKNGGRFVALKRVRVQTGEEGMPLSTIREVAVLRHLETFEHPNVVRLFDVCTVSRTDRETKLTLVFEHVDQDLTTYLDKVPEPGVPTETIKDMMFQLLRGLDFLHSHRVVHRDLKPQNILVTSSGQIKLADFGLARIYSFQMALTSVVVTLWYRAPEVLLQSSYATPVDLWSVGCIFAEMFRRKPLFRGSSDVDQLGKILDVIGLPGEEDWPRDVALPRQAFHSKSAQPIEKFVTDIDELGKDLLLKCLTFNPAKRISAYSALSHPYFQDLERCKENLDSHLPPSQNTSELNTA
Chain of CDK6/Cyclin D3 (P30281 whole entry partner): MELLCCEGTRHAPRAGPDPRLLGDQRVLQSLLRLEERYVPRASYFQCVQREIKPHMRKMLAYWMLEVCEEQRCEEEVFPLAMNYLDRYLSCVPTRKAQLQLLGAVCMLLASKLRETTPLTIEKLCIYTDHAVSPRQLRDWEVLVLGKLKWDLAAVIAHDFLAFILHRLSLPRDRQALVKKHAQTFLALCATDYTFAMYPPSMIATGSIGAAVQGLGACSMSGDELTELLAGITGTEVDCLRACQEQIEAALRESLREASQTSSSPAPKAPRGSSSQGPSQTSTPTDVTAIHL
A further assay has as its target CDK4 (Homo sapiens (Human), UniProt P11802). The assay is described as follows: Phospho-Serine 795 Rb ELISA assay in JEKO-1 cells. It counts as cell-based. The settings on record: overnight treatment, phospho-Rb S795, read-out: CDK4 pRB S795 ELISA JEKO-1 cells IC50.
Another assay deals with CDK6 (Homo sapiens (Human), UniProt Q00534). The assay is described as follows: Phospho-Serine 795 Rb ELISA assay in MV4-11 cells. In kind it is cell-based. The settings on record: overnight treatment, phospho-Rb S795, read-out: CDK6 pRB S795 ELISA MV4-11 cells IC50.
Chain of CDK6 (Q00534 whole entry): as the sequence (Q00534 whole entry) above
Chain of CDK6 (P30281 whole entry partner): as the sequence (P30281 whole entry partner) above

Chain of CDK4 (P11802 2-303): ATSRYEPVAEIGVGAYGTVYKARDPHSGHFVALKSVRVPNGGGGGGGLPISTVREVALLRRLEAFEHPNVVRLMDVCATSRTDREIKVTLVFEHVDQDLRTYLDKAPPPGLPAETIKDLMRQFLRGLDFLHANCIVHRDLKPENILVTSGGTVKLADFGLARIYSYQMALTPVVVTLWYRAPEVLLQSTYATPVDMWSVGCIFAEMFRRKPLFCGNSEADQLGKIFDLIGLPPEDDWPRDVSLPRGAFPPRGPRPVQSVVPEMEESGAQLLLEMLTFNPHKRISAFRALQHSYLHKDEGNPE
Chain of CDK4 (P24385 whole entry partner): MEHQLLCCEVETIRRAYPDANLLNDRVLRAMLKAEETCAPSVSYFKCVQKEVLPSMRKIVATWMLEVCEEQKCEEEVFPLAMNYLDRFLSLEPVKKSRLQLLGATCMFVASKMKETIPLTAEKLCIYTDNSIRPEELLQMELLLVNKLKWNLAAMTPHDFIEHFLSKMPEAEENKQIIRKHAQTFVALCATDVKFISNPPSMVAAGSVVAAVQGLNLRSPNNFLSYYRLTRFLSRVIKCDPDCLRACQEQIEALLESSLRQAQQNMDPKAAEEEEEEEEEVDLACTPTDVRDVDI
Chain of CDK4/Cyclin D1 (P11802 whole entry): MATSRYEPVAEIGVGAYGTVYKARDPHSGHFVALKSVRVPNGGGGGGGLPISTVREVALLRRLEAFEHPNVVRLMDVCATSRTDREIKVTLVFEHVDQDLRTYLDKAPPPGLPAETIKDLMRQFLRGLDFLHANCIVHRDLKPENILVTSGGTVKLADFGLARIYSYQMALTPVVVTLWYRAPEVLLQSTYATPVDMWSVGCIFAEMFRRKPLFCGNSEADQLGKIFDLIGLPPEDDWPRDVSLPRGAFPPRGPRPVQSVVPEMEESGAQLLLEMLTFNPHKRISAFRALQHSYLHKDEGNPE
Chain of CDK4/Cyclin D1 (P24385 whole entry partner): as the sequence (P24385 whole entry partner) above

In the case of `CC(C)n1c(CN2CC(O)C2)nc2c(F)cc(-c3nc(N[C@@H]4CCOC[C@H]4O)ncc3Cl)cc21` [Example H03, 1,5-anhydro-3-[(5-chloro-4-{4-fluoro-2-[(3-hydroxyazetidin-1-yl)methyl]-1-(propan-2-yl)-1H-benzimidazol-6-yl}pyrimidin-2-yl)amino]-2,3-dideoxy-D-threo-pentitol], the Ki at CDK4/Cyclin D1 turned out to be 1.8 nM; on CDK6/Cyclin D3, 66.9 nM. The IC50 at CDK4 amounted to 155 nM; at CDK6, 423 nM.
`CC(C)n1c(CC(N)C(F)F)nc2c(F)cc(-c3nc(N[C@@H]4CCOC[C@H]4O)ncc3Cl)cc21` (single isomer, unassigned) [Example A58, 3-({4-[2-(2-amino-3,3-difluoropropyl)-4-fluoro-1-(propan-2-yl)-1H-benzimidazol-6-yl]-5-chloropyrimidin-2-yl}amino)-1,5-anhydro-2,3-dideoxy-D-threo-pentitol]: the Ki on CDK4/Cyclin D1 was 0.6 nM; at CDK6/Cyclin D3, 17.6 nM. Moreover, the IC50 at CDK4 turned out to be 33.1 nM; at CDK6 it was 203 nM.
On to `CC(C)n1c(C(F)F)nc2c(F)cc(-c3nc(N[C@@H]4CCN(S(C)(=O)=O)C[C@H]4O)ncc3Cl)cc21` [Example A69, (3R,4R)-4-({5-chloro-4-[2-(difluoromethyl)-4-fluoro-1-(propan-2-yl)-1H-benzimidazol-6-yl]pyrimidin-2-yl}amino)-1-(methanesulfonyl)piperidin-3-ol], for which the Ki turned out to be 0.7 nM at CDK4/Cyclin D1 and 4.9 nM on CDK6/Cyclin D3. In addition, the IC50 was found to be 101 nM on CDK4 and 238 nM on CDK6.
As for `CC(C)(C)n1cnc2ccc(-c3cc(N[C@@H]4CCN(C(=O)CO)C[C@H]4O)ncc3Cl)nc21` [Example F22, 1-[(3R,4R)-4-{[4-(3-tert-butyl-3H-imidazo[4,5-b]pyridin-5-yl)-5-chloropyridin-2-yl]amino}-3-hydroxypiperidin-1-yl]-2-hydroxyethan-1-one], the Ki turned out to be 0.5 nM at CDK4/Cyclin D1 and 9.1 nM on CDK6/Cyclin D3. Besides, the IC50 was determined as 61.3 nM on CDK4 and 171 nM on CDK6.
For `CC(N)c1nc2c(F)cc(-c3nc(N[C@@H]4CCN(S(C)(=O)=O)C[C@H]4O)ncc3Cl)cc2n1C(C)C` (single isomer, unassigned) [Example A47], in that order: 1 nM, 24.6 nM, 383 nM and 370 nM.
For `CC(C)n1c(C2COC2)nc2c(F)cc(-c3nc(N[C@@H]4CCN(S(C)(=O)=O)C[C@H]4O)ncc3Cl)cc21` [Example A30], in that order: 0.2 nM, 4.9 nM, 51.6 nM and 63.5 nM.
Regarding `Cc1cnc(N[C@@H]2CCN(S(C)(=O)=O)C[C@H]2O)nc1-c1cc(F)c2nc(C)n(C(C)C)c2c1` [Example A83, (3R,4R)-4-({4-[4-fluoro-2-methyl-1-(propan-2-yl)-1H-benzimidazol-6-yl]-5-methylpyrimidin-2-yl}amino)-1-(methanesulfonyl)piperidin-3-ol], the results for the Ki on CDK4/Cyclin D1 and at CDK6/Cyclin D3 were 4.1 nM and 88.5 nM, respectively. The IC50 came out at 395 nM at CDK4 and 1220 nM at CDK6.
In the case of `Cc1nc2c(F)cc(-c3nc(N[C@@H]4CCN(S(C)(=O)=O)C[C@H]4O)ncc3Cl)cc2n1[C@H](C)CN` [Example A38, (3R,4R)-4-[(4-{1-[(2R)-1-aminopropan-2-yl]-4-fluoro-2-methyl-1H-benzimidazol-6-yl}-5-chloropyrimidin-2-yl)amino]-1-(methanesulfonyl)piperidin-3-ol], the results for the Ki on CDK4/Cyclin D1 and at CDK6/Cyclin D3 were 0.5 nM and 10.2 nM, respectively. Moreover, the IC50 on CDK4 was determined as 456 nM; at CDK6 it was 598 nM.
`CC1CNCc2nc3c(F)cc(-c4nc(N[C@@H]5CCOC[C@H]5O)ncc4Cl)cc3n21` (single isomer, unassigned) [Example A55, 1,5-anhydro-3-{[5-chloro-4-(9-fluoro-4-methyl-1,2,3,4-tetrahydropyrazino[1,2-a]benzimidazol-7-yl)pyrimidin-2-yl]amino}-2,3-dideoxy-D-threo-pentitol]: the Ki was found to be 3.2 nM at CDK4/Cyclin D1 and 64.9 nM at CDK6/Cyclin D3. Further, the IC50 is 198 nM on CDK4 and 283 nM on CDK6.
For `CC(C)n1c(CN)nc2c(F)cc(-c3nc(N[C@@H]4CCOC[C@H]4O)ncc3Cl)cc21` [Example A54, 3-({4-[2-(aminomethyl)-4-fluoro-1-(propan-2-yl)-1H-benzimidazol-6-yl]-5-chloropyrimidin-2-yl}amino)-1,5-anhydro-2,3-dideoxy-D-threo-pentitol], in that order: 2.3 nM, 37.5 nM, 173 nM and 605 nM.
`CC(C)c1c2cc(-c3nc(N[C@@H]4CCN(S(C)(=O)=O)C[C@H]4O)ncc3Cl)ccc2nn1C` [Example A28]: the Ki at CDK4/Cyclin D1 was determined as 0.5 nM; on CDK6/Cyclin D3, 6.2 nM. The IC50 on CDK4 is 99.2 nM; on CDK6, 131 nM.
In the case of `CC(C)(C)n1cnc2c(F)cc(-c3cc(N[C@@H]4CCN(C(=O)C(F)(F)CN)C[C@H]4O)ncc3Cl)cc21` [Example F32, 3-amino-1-[(3R,4R)-4-{[4-(1-tert-butyl-4-fluoro-1H-benzimidazol-6-yl)-5-chloropyridin-2-yl]amino}-3-hydroxypiperidin-1-yl]-2,2-difluoropropan-1-one], the Ki at CDK4/Cyclin D1 was 0.9 nM; on CDK6/Cyclin D3, 12.8 nM. The concentration for half-maximal inhibition (IC50) at CDK4 is 172 nM; on CDK6, 628 nM.
As for `CC(C)n1c(CNC2CC2)nc2c(F)cc(-c3nc(N[C@@H]4CCOC[C@H]4O)ncc3Cl)cc21` [Example H11, 1,5-anhydro-3-[(5-chloro-4-{2-[(cyclopropylamino)methyl]-4-fluoro-1-(propan-2-yl)-1H-benzimidazol-6-yl}pyrimidin-2-yl)amino]-2,3-dideoxy-D-threo-pentitol], the Ki on CDK4/Cyclin D1 amounted to 0.7 nM; on CDK6/Cyclin D3, 22.1 nM. The results for the IC50 at CDK4 and at CDK6 were 43.4 nM and 295 nM, respectively.
In the same order, the values of `CC(C)n1c(CN(C)C)nc2c(F)cc(-c3nc(N[C@@H]4CCOC[C@H]4O)ncc3Cl)cc21` [Example H02, 1,5-anhydro-3-[(5-chloro-4-{2-[(dimethylamino)methyl]-4-fluoro-1-(propan-2-yl)-1H-benzimidazol-6-yl}pyrimidin-2-yl)amino]-2,3-dideoxy-D-threo-pentitol] are 0.8 nM, 20 nM, 52.1 nM and 118 nM.
With `CC1(C)OCCn2nc3c(F)cc(-c4nc(N[C@@H]5CCOC[C@H]5O)ncc4F)cc3c21` [Example A80, 1,5-anhydro-2,3-dideoxy-3-{[5-fluoro-4-(7-fluoro-1,1-dimethyl-3,4-dihydro-1H-[1,4]oxazino[4,3-b]indazol-9-yl)pyrimidin-2-yl]amino}-D-threo-pentitol], the inhibitory constant (Ki) was found to be 0.5 nM at CDK4/Cyclin D1 and 14.7 nM on CDK6/Cyclin D3. Also, the figures for the concentration for half-maximal inhibition (IC50) at CDK4 and at CDK6 were 72.9 nM and 217 nM, respectively.
For the molecule `Cn1nc2c(F)cc(-c3nc(N[C@@H]4CCOC[C@H]4O)ncc3Cl)cc2c1C(C)(C)N` [Example A49, 3-({4-[3-(2-aminopropan-2-yl)-7-fluoro-2-methyl-2H-indazol-5-yl]-5-chloropyrimidin-2-yl}amino)-1,5-anhydro-2,3-dideoxy-D-threo-pentitol], the Ki on CDK4/Cyclin D1 stood at 0.7 nM; on CDK6/Cyclin D3 it was 14.3 nM. Also, the 50% inhibitory concentration (IC50) on CDK4 is 76 nM; on CDK6, 219 nM.
In the same order, the values of `CC(C)n1cnc2c(F)cc(-c3nc(N[C@@H]4CCN(C(=O)C5(N)CC(F)(F)C5)C[C@H]4O)ncc3Cl)cc21` [Example F29, (1-amino-3,3-difluorocyclobutyl)[(3R,4R)-4-({5-chloro-4-[4-fluoro-1-(propan-2-yl)-1H-benzimidazol-6-yl]pyrimidin-2-yl}amino)-3-hydroxypiperidin-1-yl]methanone] are 1.8 nM, 23.3 nM, 246 nM and 644 nM.
In the same order, the values of `Cc1nc2c(F)cc(-c3ccnc(N[C@@H]4CCN(S(C)(=O)=O)C[C@H]4O)n3)cc2n1C(C)C` [Example A04] are 0.6 nM, 11.4 nM, 330 nM and 289 nM.
With `CC(C)n1c([C@@H](C)O)nc2c(F)cc(-c3nc(N[C@@H]4CCOC[C@H]4O)ncc3Cl)cc21` [Example A13], the Ki on CDK4/Cyclin D1 turned out to be 1.7 nM; on CDK6/Cyclin D3 it was 31.5 nM. Besides, the 50% inhibitory concentration (IC50) turned out to be 72.2 nM on CDK4 and 277 nM at CDK6.
`CCS(=O)(=O)N1CC[C@@H](Nc2ncc(Cl)c(-c3cc(F)c4nc(C)n(C5COC5)c4c3)n2)[C@H](O)C1` [Example F08, (3R,4R)-4-({5-chloro-4-[4-fluoro-2-methyl-1-(oxetan-3-yl)-1H-benzimidazol-6-yl]pyrimidin-2-yl}amino)-1-(ethanesulfonyl)piperidin-3-ol]: the Ki at CDK4/Cyclin D1 was found to be 0.5 nM; on CDK6/Cyclin D3, 11.5 nM. The results for the IC50 at CDK4 and at CDK6 were 108 nM and 311 nM, respectively.
For `CC(C)n1c(CNC2COC2)nc2c(F)cc(-c3nc(N[C@@H]4CCN(S(C)(=O)=O)C[C@H]4O)ncc3Cl)cc21` [Example H09, (3R,4R)-4-({5-chloro-4-[4-fluoro-2-{[(oxetan-3-yl)amino]methyl}-1-(propan-2-yl)-1H-benzimidazol-6-yl]pyrimidin-2-yl}amino)-1-(methanesulfonyl)piperidin-3-ol], the results for the inhibition constant (Ki) at CDK4/Cyclin D1 and on CDK6/Cyclin D3 were 0.9 nM and 18.6 nM, respectively. The IC50 on CDK4 stood at 205 nM; on CDK6, 230 nM.

The record behind these values is patent US10766884B2 (Pfizer Inc., priority 2018, dated 2020).
